{
  "source": "patent US20230414599A1",
  "about": "“NICOTINAMIDE, NICOTINAMIDE PRECURSORS AND NICOTINAMIDE METABOLITES AND COMPOSITIONS THEREOF FOR REDUCING THE TIME TO RESOLUTION OF SYMPTOMS IN PATIENTS WITH COVID-19 AND OTHER VIRAL INFECTIONS” (CONARIS RESEARCH INSTITUTE AG, priority 2020, published 2023)",
  "origin": "cited, not measured here",
  "tested_on": "COVID-19",
  "conditions": "patients with mild or moderate COVID-19; interim analysis; cited from earlier work",
  "data": [
    {"smiles": "CC(C)C(=O)OC[C@H]1O[C@@H](n2ccc(NO)nc2=O)[C@H](O)[C@@H]1O", "note": "[molnupiravir]", "values": [
      {"measurement": "Reduction of the risk of hospitalization or death compared to placebo", "value": "approximately 50%"}
    ]}
  ]
}
